# Experimental data published in the supplement of paper PMC3974653.
# Counter-ions that a name gives are not always drawn.
# Tested on: MTT (mouse pheochromocytoma)
# Assay: IC50 of cell viability (ATP content)
# Details: (24 or 48 h)
# Summary of the method: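 MTT mouse pheochromocytoma cells (5 µl of 200,000 cells/ml per well, white 1536-well plates, DMEM with 5% FBS and 1% horse serum) were cultured overnight at 37°C, 5% CO2. They then received 23 nl library compound in DMSO by pintool at 8 concentrations (final 0.5 nM to 46 µM) for 24 or 48 hrs. CellTiter-Glo ATP luminescence was read after 15 minutes. Signals were normalised to positive-control (100% inhibition) and DMSO (0%) wells, and IC50 came from a four-parameter logistic fit.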
row,IC50 of cell viability [µM],Compound
1,> 46,CCCC(=O)O[C@]1(C(=O)CCl)C(C)CC2C3CCC4=CC(=O)C=CC4(C)[C@@]3(F)C(=O)CC21C (stereo partly drawn) [CLOBETASONE BUTYRATE]
2,> 46,O=C(O)CCC/C=C\C[C@@H]1[C@@H](/C=C/[C@@H](O)COc2cccc(C(F)(F)F)c2)[C@H](O)C[C@@H]1O [Fluprostenol sodium]
3,> 46,CCCCC(CC)CCC(CC(C)C)OS(=O)(=O)[O-] (stereo not drawn) [SODIUM TETRADECYL SULFATE]
4,> 46,C/C(=N\O)c1ccc(OCC(=O)N2CCCCC2)cc1 [Pifoxime]
5,> 46,CC1=C(/C=C/C(C)=C/C=C/C(C)=C/C(=O)Oc2c(C)c(C)c3c(c2C)CC[C@@](C)(CCC[C@H](C)CCC[C@H](C)CCCC(C)C)O3)C(C)(C)CCC1 [TOCORETINATE]
6,> 46,CCOc1ccc(S(=O)(=O)O)c2cccnc12 [Actinoquinolum]
7,> 46,Cc1ccc(Nc2c(F)cccc2Cl)c(CC(=O)O)c1 [Lumiracoxib]
8,> 46,[K+].C[C@H](OC1=CC=CC=C1)C(=O)N[C@H]2[C@@H]3SC(C)(C)[C@@H]([N@@]3C2=O)C([O-])=O [Phenethicillin potassium salt]
9,> 46,CN1CCN(C(=O)C2CCCCC2)CC1 [Pexantel]
10,> 46,C=CCN1CCCC1CNC(=O)c1cc([S+](N)(=O)[O-])cc(OC)c1OC (stereo not drawn) [Veraliprida]
11,> 46,CCN1\C=C(\C(O)=O)C(=O)C2=C1N=C(N=C2)N3CCCC3 [Piromidic acid]
12,> 46,C[C@@H]1C[C@@H]2[C@H]3C[C@@H](F)\C4=C\C(=O)\C=C/[C@]4(C)[C@@]3(Cl)[C@@H](O)C[C@@]2(C)[C@@H]1C(=O)COC(=O)C(C)(C)C [Clocortolone pivalate]
13,> 46,O=C1/C=C(OC2=CC=CC=C12)/C3=CC=CC=C3 [Flavone]
14,> 46,O=C([O-])COc1nn(Cc2ccccc2)c2ccccc12 [BENDAZAC]
15,> 46,COC(=O)c1ccc(O)cc1 [Methylparaben]
16,> 46,O=C(O)Cc1cn(-c2ccccc2)nc1-c1ccc(Cl)cc1 [Lonazolac]
17,> 46,CCC(C)(Oc1ccc(C2(c3ccc(OC(C)(CC)C(=O)O)cc3)CCCCC2)cc1)C(=O)O (stereo not drawn) [CLINOFIBRATE]
18,> 46,CC(=O)Nc1ccc(OC(=O)c2ccccc2OC(C)=O)cc1 [BENORILATE]
19,> 46,NCCC(O)(P(=O)(O)O)P(=O)(O)O [Pamidronate disodium]
20,> 46,CCCOC(=O)c1ccc(O)cc1 [Propylparaben]
21,> 46,CCN1CCC[C@H]1CNC(=O)c1cc([S+](N)(=O)[O-])ccc1OC [Levosulpiride]
22,> 46,NC1C2CN(CC12)C3=NC4=C(C=C3F)C(=O)C(=C/N4C5=CC=C(F)C=C5F)\C(O)=O (stereo not drawn) [TROVAFLOXACIN MESYLATE]
23,> 46,CNCCC(Oc1ccccc1OC)c1ccccc1 (stereo not drawn) [NISOXETINE]

row,Compound,IC50 of cell viability [µM]
1,Oc1ccc(Cl)cc1Cc1ccccc1 [Clorophene],> 46
2,CO/C=C(/C(=O)OC)c1ccccc1Oc1cc(Oc2ccccc2C#N)ncn1 [Azoxystrobin],> 46
3,Cc1ncsc1CCCl [CHLORMETHIAZOLE],> 46
4,Oc1cccc2cccnc12 [8-Hydroxyquinoline],> 46
5,CN1C[C@@H](\C=C\2[C@H]1CC3=C[NH]C4=C3C2=CC=C4)C(=O)N[C@]5(C)O[C@@]6(O)[C@@H]7CCCN7C(=O)[C@H](CC8=CC=CC=C8)N6C5=O.CN9C[C@@H](\C=C\%10[C@H]9CC%11=C[NH]C%12=C%11C%10=CC=C%12)C(=O)N[C@]%13(C)O[C@@]%14(O)[C@@H]%15CCCN%15C(=O)[C@H](CC%16=CC=CC=C%16)N%14C%13=O.O[C@H]([C@@H](O)C([O-])=O)C(O)=O [Ergotamine D-tartrate],> 46
